In US4021481A, “Amido derivatives of 2,4,6-triiodobenzoic acids containing at least one N-hydroxyalkyl and at least two hydroxyl groups” (Nyegaard & Co. A/S, priority 1969, dated 1977):
Converted amounts (≈) assume the structure as drawn. Where two headings read alike, the source gives them in different places.

Experiment: Solubility in water
Format: physicochemical
Conditions: for solubility: water
[1] = room temperature, figure in parentheses, read-out: Solubility in water at room temperature
[2] = room temperature, read-out: Solubility in water at room temperature (class)

SMILES | solubility [1] | solubility [2] | also measured
CC(=O)N(CCO)c1c(I)c(C(=O)NCCO)c(I)c(N(CCO)C(C)=O)c1I [Compound 45, N-[3,5-bis-N-(β-hydroxyethyl)-acetamido-2,4,6-triiodobenzoyl]-ethanolamine] | 214 mg/mL (≈ 287 mM) | 200 to 500 mg/mL (≈ 268 to 671 mM) | –
CC(=O)N(C)c1c(I)c(C(=O)NCCO)c(I)c(N(CCO)C(C)=O)c1I [Compound 37, N-[3-N-methylacetamido-5-N-(β-hydroxyethyl)-acetamido-2,4,6-triiodobenzoyl]-ethanolamine] | 4 mg/mL (≈ 5.59 mM) | < 200 mg/mL | –
CC(=O)N(CCO)c1c(I)c(C(=O)N(CCO)CCO)c(I)c(N(CCO)C(C)=O)c1I [Compound 5, N-[N,N'-di-(β-hydroxyethyl)-3,5-diacetamido-2,4,6-triiodobenzoyl]-diethanolamine] | – | > 500 mg/mL | –
CNC(=O)c1c(I)c(NC(C)=O)c(I)c(C(=O)N[C@H]2C(O)O[C@H](CO)[C@@H](O)[C@@H]2O)c1I (stereo partly drawn) [Compound 19, N-(3-acetamido-5-N-methylcarbamoyl-2,4,6-triiodobenzoyl)-D-glucosamine] | – | – | solubility (28°, read-out: Solubility in water at 28°): 14 mg/mL (≈ 18.1 mM)
CN(C[C@H](O)[C@@H](O)[C@H](O)[C@H](O)CO)S(=O)(=O)CI [Compound 28, N-(Iodomethane sulphonyl)-N-methylglucamine] | – | – | Solubility in hot water (hot water, in words): Very soluble in hot water; solubility (cold water, read-out: Solubility in cold water): ~100 mg/mL (≈ 250 mM)
CC(=O)Nc1c(I)c(C(=O)N(CCO)CCO)c(I)c(N(C)C(C)=O)c1I [Compound 34, N-(N-methyl-3,5-diacetamido-2,4,6-triiodobenzoyl)-N,N-di-(β-hydroxyethyl)-amine] | 213 mg/mL (≈ 298 mM) | 200 to 500 mg/mL (≈ 280 to 699 mM) | –
CC(=O)N(C)c1c(I)c(C(=O)NCC(O)CO)c(I)c(N(CCO)C(C)=O)c1I (stereo not drawn) [Compound 40, N-[3-N-methylacetamido-5-N-(β-hydroxyethyl)-acetamido-2,4,6-triiodobenzoyl]-N-(2,3-dihydroxypropyl)-amine] | 2.6 mg/mL (≈ 3.49 mM) | < 200 mg/mL | –
CC(=O)N(C)c1c(I)cc(I)c(C(=O)NC[C@H](O)[C@@H](O)[C@H](O)[C@H](O)CO)c1I [Compound 1, N-(3-N-methylacetamido-2,4,6-triiodobenzoyl)-glucamine] | – | > 500 mg/mL | –
CC(=O)N(C)c1c(I)cc(I)c(C(=O)N[C@H]2C(O)O[C@H](CO)[C@@H](O)[C@@H]2O)c1I (stereo partly drawn) [Compound 32, N-(3-N-methylacetamido-2,4,6-triodobenzoyl)-D-glucosamine] | – | > 500 mg/mL | –
CC(=O)Nc1c(I)c(NC(C)=O)c(I)c(C(=O)N[C@H]2C(O)O[C@H](CO)[C@@H](O)[C@@H]2O)c1I (stereo partly shown) [Compound 14, N-(3,5-diacetamido-2,4,6-triiodobenzoyl)-glucosamine] | – | > 500 mg/mL | –
CC(=O)N(C)c1c(I)c(C(=O)N(C)CCO)c(I)c(N(CCO)C(C)=O)c1I [Compound 38, N-[3-N-methylacetamido-5-N-(β-hydroxyethyl)-acetamido-2,4,6-triiodobenzoyl]-N-methylethanolamine] | 255 mg/mL (≈ 350 mM) | 200 to 500 mg/mL (≈ 274 to 686 mM) | –
CC(=O)OCCN(C(C)=O)c1c(I)c(C(=O)N(C)C[C@H](O)[C@@H](O)[C@H](O)[C@H](O)CO)c(I)c(N(C)C(C)=O)c1I [Compound 36, N-[3-N-methylacetamido-5-N-(β-acetoxyethyl)-acetamido-2,4,6-triiodobenzoyl]-N-methylglucamine] | – | 200 to 500 mg/mL (≈ 224 to 561 mM) | –
CC(=O)N(C)c1c(I)c(C(=O)NC(CO)(CO)CO)c(I)c(N(CCO)C(C)=O)c1I [Compound 41, N-[3-N-methylacetamido-5-N-(β-hydroxyethyl)-acetamido-2,4,6-triiodobenzoyl]-N-[tris-(hydroxymethyl)-methyl]-amine] | 8.6 mg/mL (≈ 11.1 mM) | < 200 mg/mL | –
CC(=O)N(C)c1c(I)c(C(=O)N(CCO)CCO)c(I)c(N(CCO)C(C)=O)c1I [Compound 39, N-[3-N-methylacetamido-5-N-(β-hydroxyethyl)-acetamido-2,4,6-triiodobenzoyl]-diethanolamine] | – | > 500 mg/mL | –
CC(=O)Nc1c(I)cc(I)c(C(=O)N(C)C[C@H](O)[C@@H](O)[C@H](O)[C@H](O)CO)c1I [Compound 30, N-(3-acetamido-2,4,6-triiodobenzoyl)-N-methyl-glucamine] | – | > 500 mg/mL | –
